Data on 12 molecules can be found in US20230295200A1 (REGENTS OF THE UNIVERSITY OF MICHIGAN, priority 2022, published 2023).

One test addresses T1, STAT5A (Homo sapiens, UniProt P42229).
T1 sequence (P42229 1-794): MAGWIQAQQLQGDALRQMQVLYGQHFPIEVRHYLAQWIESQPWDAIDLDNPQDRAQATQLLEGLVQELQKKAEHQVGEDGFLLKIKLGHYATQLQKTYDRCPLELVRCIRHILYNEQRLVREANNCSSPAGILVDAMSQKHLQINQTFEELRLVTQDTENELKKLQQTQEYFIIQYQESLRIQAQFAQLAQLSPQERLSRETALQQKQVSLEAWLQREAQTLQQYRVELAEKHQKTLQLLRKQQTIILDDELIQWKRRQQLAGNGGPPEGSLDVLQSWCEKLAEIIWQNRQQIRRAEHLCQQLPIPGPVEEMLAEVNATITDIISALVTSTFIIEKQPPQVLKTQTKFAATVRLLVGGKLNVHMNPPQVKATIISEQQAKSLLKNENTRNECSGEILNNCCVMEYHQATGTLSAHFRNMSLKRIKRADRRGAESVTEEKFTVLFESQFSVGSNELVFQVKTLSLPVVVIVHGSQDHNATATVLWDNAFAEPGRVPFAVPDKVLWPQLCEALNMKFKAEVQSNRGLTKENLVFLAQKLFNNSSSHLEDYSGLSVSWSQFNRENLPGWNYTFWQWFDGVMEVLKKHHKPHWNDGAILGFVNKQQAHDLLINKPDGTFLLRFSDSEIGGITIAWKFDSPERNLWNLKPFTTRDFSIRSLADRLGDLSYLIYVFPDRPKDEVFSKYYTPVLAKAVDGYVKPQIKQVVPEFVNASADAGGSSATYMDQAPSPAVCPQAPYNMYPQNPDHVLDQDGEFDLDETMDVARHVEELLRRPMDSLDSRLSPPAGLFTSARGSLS
As to the kind of experiment: Fluorescence polarization (FP) binding assay, STAT5A. The conditions noted are these: FP competition, 5 nM fluorescein-labeled tracer, 200 nM protein, PBS pH7.4. Here is the method:
Evaluation of the activity of the inhibitors may be accomplished by fluorescence polarization (FP) experiments. A representative general protocol is the following:
Fluorescence polarization (FP) experiments are performed in black round-bottom plates using the CLARIOstar microplate reader. To each well, fluorescein-labeled tracer and STAT5 or STAT6 protein are added in assay buffer. […] The inhibition constants are determined as the concentration of the STAT5 or STAT6 at which 50% of the ligand is bound.
Fluorescence polarization (FP) experiments were performed in 96-well, black round-bottom plates (Microfluor 2, Fisher Scientific) using the CLARIOstar microplate reader (BMG Labtech). To each well, 5 nM of fluoresceinlabeled tracer and 200 nM of STAT5 and/or STAT6 protein were added to a final volume of 100 μl in the assay buffer (PBS pH7.4+0.01% BGG+0.01% Tween-20, 2 mM DTT). The plate was mixed on a shaker for 15 m and incubated at room temperature for 1 h to reach equilibrium. […] All experimental data were analyzed using Prism 8.0 software (GraphPad Software), and the inhibition constants were determined by nonlinear curve fitting as the concentration of the STAT5 and/or STAT6 at which 50% of the ligand is bound.
On the technique in general: Fluorescence polarisation rises when a labelled molecule tumbles more slowly, as on binding a larger partner.

The next test addresses T2, STAT6 protein (Homo sapiens, UniProt P42226).
T2 sequence (P42226 1-847): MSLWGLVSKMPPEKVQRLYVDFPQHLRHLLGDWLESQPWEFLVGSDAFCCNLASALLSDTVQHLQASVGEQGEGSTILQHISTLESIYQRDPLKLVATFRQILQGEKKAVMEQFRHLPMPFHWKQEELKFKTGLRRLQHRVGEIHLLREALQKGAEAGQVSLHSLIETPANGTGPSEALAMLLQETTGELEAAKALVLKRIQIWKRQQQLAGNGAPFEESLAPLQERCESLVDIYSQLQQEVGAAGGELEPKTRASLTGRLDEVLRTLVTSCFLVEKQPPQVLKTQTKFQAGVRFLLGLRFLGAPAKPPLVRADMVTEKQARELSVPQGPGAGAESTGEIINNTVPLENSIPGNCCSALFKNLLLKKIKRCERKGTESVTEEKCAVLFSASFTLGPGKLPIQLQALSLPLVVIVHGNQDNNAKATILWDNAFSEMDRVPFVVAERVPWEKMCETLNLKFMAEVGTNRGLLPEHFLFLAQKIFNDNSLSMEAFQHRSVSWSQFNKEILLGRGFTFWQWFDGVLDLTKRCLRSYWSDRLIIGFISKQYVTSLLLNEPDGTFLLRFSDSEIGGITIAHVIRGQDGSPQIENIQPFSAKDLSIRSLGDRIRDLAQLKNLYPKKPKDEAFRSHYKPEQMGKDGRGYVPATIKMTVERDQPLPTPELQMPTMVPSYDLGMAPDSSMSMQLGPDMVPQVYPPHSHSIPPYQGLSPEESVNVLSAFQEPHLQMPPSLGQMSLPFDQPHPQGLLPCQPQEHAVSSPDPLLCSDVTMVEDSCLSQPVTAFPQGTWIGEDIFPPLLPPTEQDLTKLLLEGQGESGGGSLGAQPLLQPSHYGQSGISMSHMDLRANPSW
As to the kind of experiment: Fluorescence polarization (FP) binding assay, STAT6. Conditions: FP competition, 5 nM fluorescein-labeled tracer, 200 nM protein, PBS pH7.4; read-out: Binding STAT6. The method, boiled down: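 Each well holds 200 nM STAT5 and/or STAT6 with 5 nM fluorescent tracer in PBS pH 7.4 (0.01% BGG, 0.01% Tween-20, 2 mM DTT). Binding reaches equilibrium over 1 h at room temperature after brief shaking, and polarization data are fitted nonlinearly.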

Molecules are shown by their SMILES. A value given as a limit tells only on which side of the number the result lay.

For the molecule `CC(C)(C)[C@H](NC(=O)/C=C/c1ccc(C(F)(F)P(=O)(O)O)cc1)C(=O)N1CCC[C@H]1C(=O)N(c1ccccc1)c1ccc(I)cc1` [Compound 1, (difluoro(4-((E)-3-(((S)-1-((S)-2-((4-iodophenyl)(phenyl)carbamoyl)pyrrolidin-1-yl)-3,3-dimethyl-1-oxobutan-2-yl)amino)-3-oxoprop-1-en-1-yl)phenyl)methyl)phosphonic acid], the results for the Ki at STAT5A and on STAT6 protein were greater than 10000 nM and 100 to 1000 nM, respectively.
For `CC(C)(C)[C@H](NC(=O)c1cc2cc(C(F)(F)P(=O)(O)O)ccc2[nH]1)C(=O)N1CCC[C@H]1C(=O)N(c1ccccc1)c1ccc(I)cc1` [Compound 2, (difluoro(2-(((S)-1-((S)-2-((4-iodophenyl)(phenyl)carbamoyl)pyrrolidin-1-yl)-3,3-dimethyl-1-oxobutan-2-yl)carbamoyl)-1H-indol-5-yl)methyl)phosphonic acid], in that order: 1000 to 10000 nM and 100 to 1000 nM.
For `CC(=O)N1CC[C@H]2CC[C@@H](C(=O)NC(c3ccccc3)c3ccccc3)N2C(=O)[C@@H](NC(=O)c2cc3cc(C(F)(F)P(=O)(O)O)ccc3[nH]2)C1` [Compound 3, ((2-(((5S,8S,10aR)-3-acetyl-8-(benzhydrylcarbamoyl)-6-oxodecahydropyrrolo[1,2-a][1,5]diazocin-5-yl)carbamoyl)-1H-indol-5-yl)difluoromethyl)phosphonic acid], in that order: greater than 10000 nM and 1000 to 10000 nM.
`CC(=O)N1CC[C@H]2CC[C@@H](C(=O)NC(c3ccccc3)c3ccccc3)N2C(=O)[C@@H](NC(=O)/C=C/c2ccc(C(F)(F)P(=O)(O)O)cc2)C1` [Compound 5, ((4-((E)-3-(((5S,8S,10aR)-3-acetyl-8-(benzhydrylcarbamoyl)-6-oxodecahydropyrrolo[1,2-a][1,5]diazocin-5-yl)amino)-3-oxoprop-1-en-1-yl)phenyl)difluoromethyl)phosphonic acid]: the Ki at STAT5A and on STAT6 protein was greater than 10000 nM each time.
Consider `CCC(CC)[C@H](NC(=O)c1cc2cc(C(F)(F)P(=O)(O)O)ccc2s1)C(=O)N1CCC[C@H]1C(=O)N(CCC(=O)N(C)C)c1ccc(-c2nccs2)cc1` [Compound 322, ((2-(((S)-1-((S)-2-((3-(dimethylamino)-3-oxopropyl)(4-(thiazol-2-yl)phenyl)carbamoyl)pyrrolidin-1-yl)-3-ethyl-1-oxopentan-2-yl)carbamoyl)benzo[b]thiophen-5-yl)difluoromethyl)phosphonic acid], for which the Ki on STAT5A lay in the range of 100 to 1000 nM.
As for `CN(C)C(=O)CCN(C(=O)[C@@H]1CCCN1C(=O)[C@@H](NC(=O)c1cc2cc(C(F)(F)P(=O)(O)O)ccc2s1)C1CCCCC1)c1ccc(-c2nccs2)cc1` [Compound 323, ((2-(((S)-1-cyclohexyl-2-((S)-2-((3-(dimethylamino)-3-oxopropyl)(4-(thiazol-2-yl)phenyl)carbamoyl)pyrrolidin-1-yl)-2-oxoethyl)carbamoyl)benzo[b]thiophen-5-yl)difluoromethyl)phosphonic acid], the Ki at STAT5A is 1000 to 10000 nM.
On the same count and under the same terms, the same measure for `CN(C)C(=O)CCN(C(=O)[C@@H]1CCCN1C(=O)[C@@H](NC(=O)c1cc2cc(C(F)(F)P(=O)(O)O)ccc2s1)c1ccccc1)c1ccc(-c2nccs2)cc1` [Compound 324, ((2-(((S)-2-((S)-2-((3-(dimethylamino)-3-oxopropyl)(4-(thiazol-2-yl)phenyl)carbamoyl)pyrrolidin-1-yl)-2-oxo-1-phenylethyl)carbamoyl)benzo[b]thiophen-5-yl)difluoromethyl)phosphonic acid]: 1000 to 10000 nM.
Same read-out and setting: as for `CN(C)C(=O)CCN(C(=O)[C@@H]1CCCN1C(=O)[C@H](Cc1ccc(F)cc1)NC(=O)c1cc2cc(C(F)(F)P(=O)(O)O)ccc2s1)c1ccc(-c2nccs2)cc1` [Compound 325, ((2-(((S)-1-((S)-2-((3-(dimethylamino)-3-oxopropyl)(4-(thiazol-2-yl)phenyl)carbamoyl)pyrrolidin-1-yl)-3-(4-fluorophenyl)-1-oxopropan-2-yl)carbamoyl)benzo[b]thiophen-5-yl)difluoromethyl)phosphonic acid], the figure is 100 to 1000 nM.
Same read-out and setting: as for `CN(C)C(=O)CCN(C(=O)[C@@H]1CCCN1C(=O)[C@H](Cc1ccc(Br)cc1)NC(=O)c1cc2cc(C(F)(F)P(=O)(O)O)ccc2s1)c1ccc(-c2nccs2)cc1` [Compound 326, ((2-(((S)-3-(4-bromophenyl)-1-((S)-2-((3-(dimethylamino)-3-oxopropyl)(4-(thiazol-2-yl)phenyl)carbamoyl)pyrrolidin-1-yl)-1-oxopropan-2-yl)carbamoyl)benzo[b]thiophen-5-yl)difluoromethyl)phosphonic acid], the figure is 1000 to 10000 nM; as for `CN(C)C(=O)CCN(C(=O)[C@@H]1CCCN1C(=O)[C@H](Cc1ccc(C(F)(F)F)cc1)NC(=O)c1cc2cc(C(F)(F)P(=O)(O)O)ccc2s1)c1ccc(-c2nccs2)cc1` [Compound 327, ((2-(((S)-1-((S)-2-((3-(dimethylamino)-3-oxopropyl)(4-(thiazol-2-yl)phenyl)carbamoyl)pyrrolidin-1-yl)-1-oxo-3-(4-(trifluoromethyl)phenyl)propan-2-yl)carbamoyl)benzo[b]thiophen-5-yl)difluoromethyl)phosphonic acid], 1000 to 10000 nM.
On STAT5A, `CN(C)C(=O)CCN(C(=O)[C@@H]1CCCN1C(=O)[C@H](CCc1ccccc1)NC(=O)c1cc2cc(C(F)(F)P(=O)(O)O)ccc2s1)c1ccc(-c2nccs2)cc1` [Compound 328, ((2-(((S)-1-((S)-2-((3-(dimethylamino)-3-oxopropyl)(4-(thiazol-2-yl)phenyl)carbamoyl)pyrrolidin-1-yl)-1-oxo-4-phenylbutan-2-yl)carbamoyl)benzo[b]thiophen-5-yl)difluoromethyl)phosphonic acid] returned a Ki of 100 to 1000 nM.
Same read-out and setting: as for `CN(C)C(=O)CCN(C(=O)[C@@H]1CCCN1C(=O)[C@H](Cc1ccc2ccccc2c1)NC(=O)c1cc2cc(C(F)(F)P(=O)(O)O)ccc2s1)c1ccc(-c2nccs2)cc1` [Compound 329, ((2-(((S)-1-((S)-2-((3-(dimethylamino)-3-oxopropyl)(4-(thiazol-2-yl)phenyl)carbamoyl)pyrrolidin-1-yl)-3-(naphthalen-2-yl)-1-oxopropan-2-yl)carbamoyl)benzo[b]thiophen-5-yl)difluoromethyl)phosphonic acid], the figure is 1000 to 10000 nM.
